Activity calls are given as the source filed them. No cut-off for these calls is given here.
Key:
[1] = test system: Epidermal growth factor receptor (Homo sapiens), P00533 [L858R]; assay: Inhibition of recombinant human GST-tagged EGFR L858R mutant (668-1210 residues) expressed in insect cells at 2 uM using Tyr 04 as substrate measured after 1 hr by Z'-LYTE assay relative to control; conditions: Insect cell
[2] = biological target: Protein kinase C eta type (Homo sapiens) (UniProt P24723); assay: Inhibition of recombinant human PRKCH at 2 uM using Ser/Thr 07 as substrate measured after 1 hr by Z'-LYTE assay relative to control
Sequence of Protein kinase C eta type (Homo sapiens) (P24723 whole entry): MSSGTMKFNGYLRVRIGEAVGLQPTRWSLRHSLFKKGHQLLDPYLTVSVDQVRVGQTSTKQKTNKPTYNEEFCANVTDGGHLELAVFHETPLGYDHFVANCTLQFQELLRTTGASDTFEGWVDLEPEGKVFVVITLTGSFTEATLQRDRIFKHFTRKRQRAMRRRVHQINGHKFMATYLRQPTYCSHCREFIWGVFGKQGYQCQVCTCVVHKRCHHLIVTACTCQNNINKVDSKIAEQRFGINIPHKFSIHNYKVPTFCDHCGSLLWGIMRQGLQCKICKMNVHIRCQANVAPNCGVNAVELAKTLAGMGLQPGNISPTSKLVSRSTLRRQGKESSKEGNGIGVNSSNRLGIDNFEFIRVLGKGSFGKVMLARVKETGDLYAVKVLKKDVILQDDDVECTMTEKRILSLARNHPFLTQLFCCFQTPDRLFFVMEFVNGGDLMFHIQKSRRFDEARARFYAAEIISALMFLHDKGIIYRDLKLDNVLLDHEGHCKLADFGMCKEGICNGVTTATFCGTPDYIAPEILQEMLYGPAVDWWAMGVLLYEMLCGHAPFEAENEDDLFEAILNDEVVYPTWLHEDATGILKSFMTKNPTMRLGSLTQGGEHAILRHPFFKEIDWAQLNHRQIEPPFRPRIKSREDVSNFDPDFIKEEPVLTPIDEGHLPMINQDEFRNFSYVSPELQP

MDA-MB-361 [3] = assay: Inhibition of protein synthesis in human MDA-MB-361 cells at 0.3 micromol/L incubated for 3 hrs by [3H] methionine incorporation based scintillation counter analysis relative to control; type: functional; conditions: MDA-MB-361, 3 h, dose 0.3 µmol/L
MDA-MB-361 [4] = assay: Antitumor activity against human MDA-MB-361 cells assessed as block the accumulation of HIF-2alpha in low oxygen at 0.3 micromol/L incubated for 24 hrs by immunoblot analysis; type: functional, cell-based; conditions: dose 0.3 µmol/L
[5] = biological target: Ephrin type-B receptor 2 (Homo sapiens) (UniProt P29323); assay: Inhibition of recombinant human GST-tagged EPHB2 (616-884 residues) expressed in insect cells at 2 uM using Tyr 02 as substrate measured after 1 hr by Z'-LYTE assay relative to control; conditions: Insect cell
Sequence of Ephrin type-B receptor 2 (Homo sapiens) (P29323 whole entry, the tested form may be a part): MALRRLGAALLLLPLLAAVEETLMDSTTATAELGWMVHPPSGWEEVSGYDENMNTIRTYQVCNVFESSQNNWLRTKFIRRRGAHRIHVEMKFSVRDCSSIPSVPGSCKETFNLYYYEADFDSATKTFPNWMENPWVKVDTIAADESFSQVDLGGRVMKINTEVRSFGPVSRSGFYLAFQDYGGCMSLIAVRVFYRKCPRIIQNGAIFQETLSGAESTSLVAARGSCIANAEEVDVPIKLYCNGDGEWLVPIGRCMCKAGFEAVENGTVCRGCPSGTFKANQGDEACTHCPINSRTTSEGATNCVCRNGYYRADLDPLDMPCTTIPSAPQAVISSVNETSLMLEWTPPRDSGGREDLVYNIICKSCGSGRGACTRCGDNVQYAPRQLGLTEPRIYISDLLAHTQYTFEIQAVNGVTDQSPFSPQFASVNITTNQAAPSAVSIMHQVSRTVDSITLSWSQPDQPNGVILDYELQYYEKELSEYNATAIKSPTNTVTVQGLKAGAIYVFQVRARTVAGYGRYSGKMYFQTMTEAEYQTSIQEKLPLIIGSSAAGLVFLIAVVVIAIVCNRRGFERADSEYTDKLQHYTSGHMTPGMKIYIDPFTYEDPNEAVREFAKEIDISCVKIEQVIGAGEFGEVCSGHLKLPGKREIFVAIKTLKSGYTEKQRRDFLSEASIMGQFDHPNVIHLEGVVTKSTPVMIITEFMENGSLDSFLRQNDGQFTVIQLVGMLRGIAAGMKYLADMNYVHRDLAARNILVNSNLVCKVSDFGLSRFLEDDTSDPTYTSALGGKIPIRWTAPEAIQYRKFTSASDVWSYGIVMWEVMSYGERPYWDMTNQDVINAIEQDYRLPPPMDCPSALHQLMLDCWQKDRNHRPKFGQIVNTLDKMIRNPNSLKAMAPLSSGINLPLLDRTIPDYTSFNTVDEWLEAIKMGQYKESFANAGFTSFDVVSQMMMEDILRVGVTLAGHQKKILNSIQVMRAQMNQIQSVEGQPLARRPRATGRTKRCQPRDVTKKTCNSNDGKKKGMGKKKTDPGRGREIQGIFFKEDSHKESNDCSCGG

[6] = biological target: Tyrosine-protein kinase Mer (Homo sapiens) (UniProt Q12866); assay: Inhibition of recombinant human GST-tagged MERTK (578-872 residues) expressed in insect cells at 2 uM using Tyr 02 as substrate measured after 1 hr by Z'-LYTE assay relative to control; conditions: Insect cell
Sequence of Tyrosine-protein kinase Mer (Homo sapiens) (Q12866 whole entry, the tested form may be a part): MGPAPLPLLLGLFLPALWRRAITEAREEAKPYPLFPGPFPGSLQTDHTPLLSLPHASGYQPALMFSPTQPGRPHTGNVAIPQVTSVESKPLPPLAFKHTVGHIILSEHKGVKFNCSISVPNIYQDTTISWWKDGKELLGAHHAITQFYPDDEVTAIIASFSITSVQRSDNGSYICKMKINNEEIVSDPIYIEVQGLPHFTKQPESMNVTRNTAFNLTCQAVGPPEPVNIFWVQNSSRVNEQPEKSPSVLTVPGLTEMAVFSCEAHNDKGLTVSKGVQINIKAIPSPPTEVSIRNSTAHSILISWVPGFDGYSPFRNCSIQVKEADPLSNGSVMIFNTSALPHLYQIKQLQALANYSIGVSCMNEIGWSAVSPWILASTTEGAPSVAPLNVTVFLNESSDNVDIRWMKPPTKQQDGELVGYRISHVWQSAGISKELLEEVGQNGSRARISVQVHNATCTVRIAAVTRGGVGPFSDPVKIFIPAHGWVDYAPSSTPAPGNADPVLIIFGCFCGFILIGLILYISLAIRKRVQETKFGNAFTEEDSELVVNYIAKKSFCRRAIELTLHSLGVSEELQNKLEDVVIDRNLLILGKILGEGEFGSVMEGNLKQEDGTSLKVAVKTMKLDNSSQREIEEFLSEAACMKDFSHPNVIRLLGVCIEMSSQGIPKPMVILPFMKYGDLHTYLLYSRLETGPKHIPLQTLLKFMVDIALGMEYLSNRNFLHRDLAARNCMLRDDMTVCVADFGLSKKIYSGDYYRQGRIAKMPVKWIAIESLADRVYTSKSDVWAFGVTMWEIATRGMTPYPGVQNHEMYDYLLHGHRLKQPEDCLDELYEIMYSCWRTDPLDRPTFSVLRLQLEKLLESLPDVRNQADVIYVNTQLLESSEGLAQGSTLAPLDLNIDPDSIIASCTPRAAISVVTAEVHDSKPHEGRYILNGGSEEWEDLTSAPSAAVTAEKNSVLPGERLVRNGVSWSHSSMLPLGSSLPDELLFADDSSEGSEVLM

MDA-MB-361 [7] = assay: Induction of apoptosis in HER2 hyperactive human MDA-MB-361 cells assessed as massive cell death at 0.001 to 100 micromol/L incubated for 48 hrs by FACS analysis; type: functional, cell-based; conditions: dose 0.001-100 µmol/L
[8] = test system: Hepatocyte growth factor receptor (Homo sapiens), P08581 [M1250T]; assay: Inhibition of recombinant human His-tagged MET M1250T mutant (956-1390 residues) expressed in insect cells at 2 uM using Tyr 06 as substrate measured after 1 hr by Z'-LYTE assay relative to control; conditions: Insect cell
A549 = assay: Antiproliferative activity against human A549 cells assessed as cell growth inhibition incubated for 24 hrs by MTS assay; type: functional, cell-based; conditions: A549, 24 h
[9] = test system: Epidermal growth factor receptor (Homo sapiens), P00533 [T790M]; assay: Inhibition of recombinant human GST-tagged EGFR T790M mutant (668-1210 residues) expressed in insect cells at 2 uM using Tyr 04 as substrate measured after 1 hr by Z'-LYTE assay relative to control; conditions: Insect cell
[10] = biological target: Serine/threonine-protein kinase DCLK2 (Homo sapiens) (UniProt Q8N568); assay: Inhibition of recombinant human full-length GST-tagged DCAMKL2 expressed in baculovirus expression system at 2 uM using Ser/Thr 17 as substrate measured after 1 hr by Z'-LYTE assay relative to control
[11] = biological target: Serine/threonine-protein kinase pim-2 (Homo sapiens) (UniProt Q9P1W9); assay: Inhibition of recombinant human full length GST-tagged PIM2 expressed in insect cells at 2 uM using Ser/Thr 07 as substrate measured after 1 hr by Z'-LYTE assay relative to control; conditions: Insect cell
MDA-MB-361 [12] = assay: Antitumor activity against human MDA-MB-361 cells xenografted in female nude mouse model assessed as suppression in P-S6K at T389 level at 50 mg/kg, iv administered once a week and measured at least 8 hrs by immunoblot analysis; type: functional, organism-based
MDA-MB-361 [13] = assay: Induction of apoptosis in PI3K/mTOR hyperactive human MDA-MB-361 cells assessed as cell death at 0.001 to 100 micromol/L incubated for 24 hrs by FACS analysis; type: functional, cell-based; conditions: dose 0.001-100 µmol/L
[14] = biological target: cGMP-dependent protein kinase 2 (Homo sapiens) (UniProt Q13237); assay: Inhibition of recombinant human full length GST-tagged PRKG2 expressed in insect cells at 2 uM using Ser/Thr 01 as substrate measured after 1 hr by Z'-LYTE assay relative to control; conditions: Insect cell
MDA-MB-361 [15] = assay: Antitumor activity against human MDA-MB-361 cells assessed as reduction in oxygen consumption rate at 1 micromol/L incubated for 1 hrs relative to control; type: functional; parameters: scale not given: the % may be the effect or the level left; conditions: dose 1 µmol/L, at 1 µM
PC3MM2 [16] = assay: Induction of apoptosis in human PC3MM2 cells assessed as reduction in S phase at 1 micromol/L incubated for 24 hrs by FACS analysis; type: functional, cell-based; conditions: dose 1.0 µmol/L
[17] = biological target: Dual specificity tyrosine-phosphorylation-regulated kinase 4 (Homo sapiens) (UniProt Q9NR20); assay: Inhibition of recombinant human full-length GST-tagged DYRK4 expressed in insect cells at 2 uM using Ser/Thr 09 as substrate measured after 1 hr by Z'-LYTE assay relative to control; conditions: Insect cell
[18] = biological target: Tyrosine-protein kinase ABL1 (Homo sapiens) (UniProt P00519); assay: Inhibition of recombinant human full-length His-tagged ABL1 expressed in insect cells at 2 uM using Tyr 02 as substrate measured after 1 hr by Z'-LYTE assay relative to control; conditions: Insect cell
[19] = biological target: Protein kinase C iota type (Homo sapiens) (UniProt P41743); assay: Inhibition of recombinant human full length His-tagged PRKCI expressed in baculovirus expression system at 2 uM using Ser/Thr 07 as substrate measured after 1 hr by Z'-LYTE assay relative to control
PC3MM2 [20] = assay: Induction of apoptosis in human PC3MM2 cells assessed as increase in G1 phase at 1 micromol/L incubated for 24 hrs by FACS analysis; type: functional, cell-based; conditions: dose 1.0 µmol/L
[21] = biological target: Mitogen-activated protein kinase 14 (Homo sapiens) (UniProt Q16539); assay: Inhibition of recombinant human full length GST-tagged MAPK14 expressed in E. coli at 2 uM using Ser/Thr 04 as substrate measured after 1 hr by Z'-LYTE assay relative to control
Sequence of Mitogen-activated protein kinase 14 (Homo sapiens) (Q16539 whole entry): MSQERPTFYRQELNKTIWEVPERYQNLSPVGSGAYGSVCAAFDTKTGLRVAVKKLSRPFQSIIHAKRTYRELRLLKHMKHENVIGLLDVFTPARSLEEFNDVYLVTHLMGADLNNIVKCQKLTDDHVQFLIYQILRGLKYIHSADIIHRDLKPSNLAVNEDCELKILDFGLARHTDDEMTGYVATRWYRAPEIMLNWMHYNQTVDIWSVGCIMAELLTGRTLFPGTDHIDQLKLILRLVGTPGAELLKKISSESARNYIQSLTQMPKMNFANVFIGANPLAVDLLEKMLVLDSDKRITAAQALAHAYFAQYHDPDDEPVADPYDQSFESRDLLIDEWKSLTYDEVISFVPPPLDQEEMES

BT-549 = assay: Antiproliferative activity against human BT-549 cells assessed as cell growth inhibition incubated for 24 hrs by MTS assay; type: functional, cell-based; conditions: BT-549, 24 h
[22] = biological target: Serine/threonine-protein kinase PAK 3 (Homo sapiens) (UniProt O75914); assay: Inhibition of recombinant human full length His-tagged PAK3 expressed in insect cells at 2 uM using Ser/Thr 20 as substrate measured after 1 hr by Z'-LYTE assay relative to control; conditions: Insect cell
[23] = biological target: Serine/threonine-protein kinase B-raf (Homo sapiens) (UniProt P15056); assay: Inhibition of recombinant human full-length GST tagged BRAF expressed in insect cells at 2 uM using Ser/Thr 03 as substrate measured after 1 hr by Z'-LYTE assay relative to control; conditions: Insect cell
Sequence of Serine/threonine-protein kinase B-raf (Homo sapiens) (P15056 whole entry): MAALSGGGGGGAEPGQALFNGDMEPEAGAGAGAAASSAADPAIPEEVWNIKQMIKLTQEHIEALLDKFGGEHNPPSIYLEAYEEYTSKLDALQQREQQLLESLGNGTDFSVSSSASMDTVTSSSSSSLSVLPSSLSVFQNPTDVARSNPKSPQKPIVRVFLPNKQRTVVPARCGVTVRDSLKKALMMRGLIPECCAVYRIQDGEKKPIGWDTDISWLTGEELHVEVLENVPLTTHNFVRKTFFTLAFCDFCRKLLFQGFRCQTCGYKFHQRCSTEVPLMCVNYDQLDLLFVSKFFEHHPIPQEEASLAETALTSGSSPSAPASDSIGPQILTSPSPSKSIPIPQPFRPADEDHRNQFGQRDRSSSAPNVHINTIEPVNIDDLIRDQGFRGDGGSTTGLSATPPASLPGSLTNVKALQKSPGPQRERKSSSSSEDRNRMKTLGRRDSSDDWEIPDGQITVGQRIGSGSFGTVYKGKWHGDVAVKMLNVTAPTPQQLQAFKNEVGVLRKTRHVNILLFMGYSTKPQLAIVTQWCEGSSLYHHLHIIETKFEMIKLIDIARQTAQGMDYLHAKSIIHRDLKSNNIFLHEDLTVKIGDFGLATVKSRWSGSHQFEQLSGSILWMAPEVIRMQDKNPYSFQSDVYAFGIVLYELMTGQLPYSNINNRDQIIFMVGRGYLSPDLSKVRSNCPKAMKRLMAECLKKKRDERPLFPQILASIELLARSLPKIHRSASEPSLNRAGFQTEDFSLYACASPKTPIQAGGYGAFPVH

[24] = biological target: Tyrosine-protein kinase Fgr (Homo sapiens) (UniProt P09769); assay: Inhibition of recombinant human full-length His-tagged FGR expressed in insect cells at 2 uM using Tyr 02 as substrate measured after 1 hr by Z'-LYTE assay relative to control; conditions: Insect cell
[25] = biological target: Casein kinase I isoform gamma-1 (Homo sapiens) (UniProt Q9HCP0); assay: Inhibition of recombinant human full-length GST-tagged CSNK1G1 expressed in insect cells at 2 uM using Ser/Thr 05 as substrate measured after 1 hr by Z'-LYTE assay relative to control; conditions: Insect cell

Sequence of Epidermal growth factor receptor (Homo sapiens), P00533 [L858R] (P00533 whole entry L858R, the tested form may be a part): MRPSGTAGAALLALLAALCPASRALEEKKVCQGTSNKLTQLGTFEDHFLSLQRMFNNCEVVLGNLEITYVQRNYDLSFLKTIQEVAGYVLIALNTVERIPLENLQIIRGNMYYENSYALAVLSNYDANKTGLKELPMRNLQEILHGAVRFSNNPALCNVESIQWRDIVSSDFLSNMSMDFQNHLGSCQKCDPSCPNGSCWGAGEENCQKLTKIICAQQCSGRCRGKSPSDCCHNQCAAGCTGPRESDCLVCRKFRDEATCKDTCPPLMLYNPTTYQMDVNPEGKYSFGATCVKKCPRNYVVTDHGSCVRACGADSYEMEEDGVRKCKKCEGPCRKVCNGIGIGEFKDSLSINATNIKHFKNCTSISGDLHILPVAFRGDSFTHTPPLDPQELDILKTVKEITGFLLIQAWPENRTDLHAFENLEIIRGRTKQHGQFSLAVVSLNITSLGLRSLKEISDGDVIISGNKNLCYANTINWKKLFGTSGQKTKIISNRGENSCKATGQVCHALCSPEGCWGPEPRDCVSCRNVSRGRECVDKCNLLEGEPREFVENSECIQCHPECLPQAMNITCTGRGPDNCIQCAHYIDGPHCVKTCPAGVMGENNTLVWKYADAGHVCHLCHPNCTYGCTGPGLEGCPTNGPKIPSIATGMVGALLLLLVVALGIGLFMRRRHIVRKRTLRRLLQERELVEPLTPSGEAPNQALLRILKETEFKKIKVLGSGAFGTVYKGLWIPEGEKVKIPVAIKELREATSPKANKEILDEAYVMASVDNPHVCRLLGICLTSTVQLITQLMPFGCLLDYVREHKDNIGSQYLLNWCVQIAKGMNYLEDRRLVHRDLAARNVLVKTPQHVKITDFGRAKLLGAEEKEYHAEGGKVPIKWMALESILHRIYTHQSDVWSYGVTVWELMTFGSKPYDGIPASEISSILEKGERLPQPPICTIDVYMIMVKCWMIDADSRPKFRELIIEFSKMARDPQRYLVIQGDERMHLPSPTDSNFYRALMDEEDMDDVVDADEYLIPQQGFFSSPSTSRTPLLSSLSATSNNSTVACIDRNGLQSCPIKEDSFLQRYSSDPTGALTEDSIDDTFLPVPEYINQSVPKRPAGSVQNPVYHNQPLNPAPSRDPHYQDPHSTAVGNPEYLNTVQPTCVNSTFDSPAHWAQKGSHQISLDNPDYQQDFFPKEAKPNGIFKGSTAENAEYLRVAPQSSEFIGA

In the case of `CNC(=O)Nc1ccc(-c2nc(N3CC4CCC(C3)O4)c3cnn(C4CCC5(CC4)OCCO5)c3n2)cc1`, the inhibition [1] is reported as 3%, the inhibition [2] is reported as 14% and the inhibition at 0.3 µM (MDA-MB-361 [3]) is reported as ~50%. For the same compound, the Activity (MDA-MB-361 [4]) was “Active”, the inhibition [5] was 6% and the inhibition [6] was 1%. The Activity (MDA-MB-361 [7]) was “Active”, the inhibition [8] was 1% and the IC50 (A549) was 102 nM. The inhibition [9] was 2%, the inhibition [10] was 2% and the inhibition [11] was 3%. The Activity (MDA-MB-361 [12]) was “Active”, the Activity (MDA-MB-361 [13]) was “Active” and the inhibition [14] was 9%. The Activity (MDA-MB-361 [15]) was 35%, the Activity (PC3MM2 [16]) was “Active” and the inhibition [17] was 4%. For the same compound, the inhibition [18] was 4%, the inhibition [19] was 6% and the Activity (PC3MM2 [20]) was “Active”. The inhibition [21] was 11%, the IC50 (BT-549) was 37 nM and the inhibition [22] was 1%. It also gave an inhibition [23] of 6%, an inhibition [24] of 1% and an inhibition [25] of -2%.

— ChEMBL document CHEMBL5696439 (Cancer Res, 2010)
